Key:
[1] = tested on: ATM-deficient pEBS7 cells and ATM-proficient YZ5 cells; experiment: MTT cell viability assay; assay type: cell-based; conditions: Dox 0-1 μM
[2] = tested on: ATM Ser1981 phosphorylation; experiment: Western analysis of ATM phosphorylation in Pa-4 and Pa-4/HMGA2 cells; assay type: cell-based; conditions: 2 μM Dox
[3] = tested on: p53 Ser-15 and Chk2 Thr-68 phosphorylation; experiment: Western analysis of p53 and Chk2 phosphorylation in MO59J and MO59K cells; assay type: cell-based
Protocol: To establish the role of DNA-PK in Dox-induced p53 and Chk2 phosphorylation, MO59J (DNA-PKcs-deficient) and MO59K (DNA-PKcs-proficient) cells were treated with Dox, and their p53 and Chk2 phosphorylation profiles were probed.

[4] = tested on: pSer15-p53 and pThr68-Chk2; experiment: Western analysis of p53 and Chk2 phosphorylation in parental and engineered HeLa cells; assay type: cell-based; conditions: Dox (2 μM), HeLa/HMGA2 and HeLa/HMGA2(2K/R) cells
Protocol: pSer15-p53 and pThr68-Chk2 profiles following exposure to Dox in parental and engineered HeLa cells were assessed. […] Intriguingly, there was a noticeable accumulation of pSer15-p53 at 6 hours post-treatment and attenuation of pThr68-Chk2 at 2 hours post-treatment in HeLa/HMGA2 cells, compared with Dox-treated HeLa and HeLa/HMGA2(2K/R) cells. Together with results set forth in Example 25, HMGA2 appears to disrupt DNA damage response by interfering with the activation of DNA-PKcs, ATM and Chk2.

[5] = tested on: Ku70-deficient MEF cells and their wild-type counterparts; experiment: MTT cell viability assay; assay type: cell-based; conditions: increasing concentrations, 72 hours
Protocol: To confirm the involvement of DNA-PK in mediating HMGA2 chemosensitization to Dox-induced DNA damage, MTT assays were conducted as described above on Ku70-deficient (Ku70^−/^−) MEF cells and their wild-type counterparts and on DNA-PKcs-deficient MO59J cells and DNA-PKcs-proficient MO59K cells.

[6] = tested on: HepG2, Hep3B, and CL48 cells; experiment: MTT cell viability assay; assay type: cell-based; conditions: increasing concentrations, 72 hours
Protocol: MTT assays were conducted as described above to assess the effect of HGMA2 expression on the sensitivity of HepG2, Hep3B, and CL48 cells to Dox or cisplatin. […] To exclude the possibility that HMGA2 increases chemosensitization in general, Taxol-induced cell growth inhibition was measured in HeLa and HeLa/HMGA2 cells. Taxol is a microtubule stabilizing agent (Slichenmyer 1991) commonly used as a chemotherapeutic agent for combating breast and ovarian cancers.

[7] = tested on: H2AX Ser139 phosphorylation; experiment: Western analysis of H2AX phosphorylation in Pa-4 and Pa-4/HMGA2 cells; assay type: cell-based; conditions: 1 μM Dox
Protocol: (§1) To ascertain whether HMGA2 effects Dox-induced ATM signaling activation, phosphorylation of ATM Ser1981 and H2AX Ser139 was assayed in the presence and absence of Dox (2 μM in ATM assays, 1 μM in H2AX assays). At various timepoints after Dox treatment, cell lysates were removed and subjected to Western analyses using monoclonal anti-phospho-ATM antibodies (Ser1981), polyclonal anti-ATM antibodies (Santa Cruz Biotechnology, Santa Cruz, Calif.), monoclonal anti-phospho-H2AX antibodies ([…]) (Upstate Cell Signaling), or anti-H2AX antibodies. Control Western analyses were performed using monoclonal anti-actin antibodies. […] HeLa and HeLa/HMGA2 cells
(§2) NU7026 (Calbiochem, San Diego, Calif.) was dissolved in DMSO at 5 mM and stored at −20° C. […] Cell lysates were removed and subjected to Western analyses using monoclonal anti-phospho-H2AX (Ser 139) antibodies. Control Western analyses were performed using monoclonal anti-actin antibodies.

[8] = tested on: HS578T, HCC1419, and CHO cells; experiment: MTT cell viability assay; conditions: Dox 0 to 2.5 μM
H2AX phosphorylation [9] = experiment: Western analysis of H2AX phosphorylation in HeLa and HeLa/HMGA2 cells; assay type: cell-based; conditions: Dox
Protocol: as §1
The effect of HMGA2 on ATM and H2AX phosphorylation in HeLa cells was measured using the protocol described above. […] As for H2AX, results were similar to those observed in Pa-4 cells.

[10] = tested on: Pa-4 and Pa-4/HMGA2 cells; experiment: MTT cell viability assay; assay type: cell-based; conditions: Dox 0-7 μM or irinotecan 0-50 μM
H2AX phosphorylation [11] = experiment: Western analysis of H2AX phosphorylation in U2OS.GK41 cells; assay type: cell-based; conditions: 2 μM Dox, 1 hour and 2 hours, cells expressing ATR-kd
Protocol: For experiments using U2OS.GK41 cells, cells were pre-treated with 1 μg/ml doxycycline for 48 […] to induce expression of ATR-kd. Non-induced control cells were pre-treated with vehicle only. Induced and non-induced cells were then treated with 2 μM Dox. At 1 hour and 2 hours after Dox treatment, cell lysates were removed and subjected to Western analyses using anti-phospho-H2AX or anti-actin antibodies.

H2AX phosphorylation [12] = experiment: Western analysis of H2AX phosphorylation in HS578T and HCC1419 cells; assay type: cell-based; conditions: 2 μM Dox
Protocol: as §2
Experiments were repeated using HS578T and HCC1419 cells treated with 2 μM rather than 1 μM Dox.

[13] = tested on: HeLa and HeLa/HMGA2 cells; experiment: MTT cell viability assay; assay type: cell-based; conditions: Dox 0-1 μM
Source text: HS578T, HCC1419, and CHO cells

[14] = tested on: PUMA and NOXA transcriptional activation; experiment: Quantitative real-time RT-PCR of PUMA and NOXA; assay type: cell-based; conditions: 2 μM Dox
topo IIα = experiment: Western analysis of steady-state topo II levels in HS578T cells; assay type: cell-based; conditions: 1 μM Dox, various time points
Protocol: HS578T cells were treated with 1 μM Dox, and at various time points cell lysates were removed and subjected to Western analyses using monoclonal anti-topo IIα antibody (BD Biosciences, San Jose, Calif.). Control Western analyses were performed using monoclonal anti-actin antibodies.

Question: What does the source list for `COc1cccc2c1C(=O)c1c(O)c3c(c(O)c1C2=O)C[C@@](O)(C(=O)CO)C[C@@H]3O[C@H]1C[C@H](N)[C@H](O)[C@H](C)O1` [Dox, doxorubicin]?
Answer: decrease in viability, pEBS7 versus YZ5 ([1]; 72 hours): less pronounced in the ATM-negative pEBS7 cells; cell viability ([1]; 72 hours after treatment): decreased cell viability in both cell types in a dose-dependent manner; ATM phosphorylation, Pa-4 versus Pa-4/HMGA2 [2]: roughly equal in Pa-4 and Pa-4/HMGA2 cells; ATM phosphorylation ([2]; Pa-4 cells): rapid phosphorylation of ATM; p53 phosphorylation at Ser-15 ([3]; Dox, MO59J and MO59K cells): robust p53 phosphorylation at Ser-15; Chk2 phosphorylation at Thr-68 ([3]; MO59J cells, 2 hours post-Dox treatment): barely detectable; pSer15-p53 and pThr68-Chk2 signals [4]: caused induction of pSer15-p53 and pThr68-Chk2 signals; viability, Ku70-deficient versus wild type [5]: marked decrease in viability; sensitivity, HepG2 and Hep3B versus CL48 [6]: greater sensitivity to both Dox and cisplatin than HMGA2-underexpressing CL48 cells; induction of H2AX phosphorylation ([7]; Pa-4/HMGA2 cells): ablation of Dox-mediated induction of H2AX phosphorylation; H2AX phosphorylation ([7]; Pa-4 cells): rapid phosphorylation; sensitivity to growth inhibition, HS578T versus HCC1419 and CHO ([8]; 72 hours): HS578T cells were substantially more sensitive to Dox-mediated growth inhibition than the other two cell types; cell viability ([8]; 72 hours after treatment): decreased cell viability in a dose-dependent manner in all three cell types; induction of H2AX phosphorylation (H2AX phosphorylation [9]): ablation of Dox-mediated induction of phosphorylation; difference in decrease of viability between Pa-4/HMGA2 and Pa-4 cells ([10]; 72 hours): much larger in Pa-4/HMGA2 cells than it was in Pa-4 cells; cell viability / growth inhibition ([10]; 72 hours after treatment): decreased cell viability in a dose-dependent manner in both Pa-4 and Pa-4/HMGA2 cells; induction of H2AX phosphorylation (H2AX phosphorylation [11]): delay in Dox-mediated induction of H2AX phosphorylation; H2AX phosphorylation (H2AX phosphorylation [12]; HCC1419 cells): induced H2AX phosphorylation; H2AX phosphorylation (H2AX phosphorylation [12]; HS578T cells): no increase in H2AX phosphorylation following Dox treatment; cell viability, HeLa/HMGA2 versus HeLa [13]: HMGA2 expression enhancing the chemosensitivity of cells to Dox; transcriptional activation of PUMA and NOXA ([14]; CL48 and HepG2 cells): marked transcriptional activation of PUMA and NOXA at 8 hours after treatment; transcriptional activation of PUMA and NOXA ([14]; Hep3B cells and HeLa cells): modest induction if any; steady-state topo II levels (topo IIα): remained comparable over the time course of Dox treatment
